Experimental data as given in US6949529B2, “Compositions containing lysophosphotidic acids which inhibit apoptosis and uses thereof” (Sky High, LLC, priority 1997, dated 2005).

Legend:
C3H/10T½ cells [1] = experiment: C3H/10T½ serum deprivation anti-apoptotic activity assay; type: cell-based; conditions: for Maximum effect relative to 18:1 LPA: LPA alone, 24 h serum deprivation, 18:1 LPA = 100%; for activity compared with lysophosphatidic acid: summary of Table 3
From the text: In order to determine the apoptotic activity of the claimed invention, the following method of analysis was used. The-cell assay is described in detail in U.S. Pat. Nos. 5,637,486, 5,620,888, and 5,681,703, and Tomei et al. (1993) Proc Natl. Acad. Sci. 90:853-857. Briefly, mouse fibroblast C3H/10T½ cells (clone 8) were obtained from ATCC (Rockville, Md.) and were maintained in exponential growth phase in which the cell cycle is randomly distributed and no cells are arrested in G0, and in quiescence. Exponential growth phase was assured by seeding at 2000 cells per 1 ml (5 ml for a 60 mm culture plate) five days prior to the beginning of the experiment. Assays were performed on cells only up to passage 15. At T=0, cultures were transferred to serum-free medium, as an apoptosis stimulus, and seed extracts were added. Controls included 10-7 and 5×10^-8 M 12-O-tetradecanoyl phorbol-13-acetate (TPA) to ensure the responsiveness of the cell culture. The samples were added to serum free medium and sterile filtered prior to addition to the cultures. Assays were performed in triplicate or quadruplicate. Analyses of the cell responses were made between 18 and 28 hours of serum deprivation. Two assays were performed on each cell culture plate consisting of differential cell counts.
1. All non-adherent or loosely adherent cells were removed from the culture dish and counted by appropriate techniques, typically counting by electronic particle counting instrument. These are the apoptotic cells, the serum deprived released cells (SDR), released by the action of cultivation in serum-free medium. Approximately 95% of these released cells are apoptotic as shown by both ultrastructure analysis and DNA fragmentation analysis.
2. The remaining adherent cells (ADH) were exposed to a buffered, typically pH 7.3, balanced salt solution such as Hanks Balanced Salt Solution without calcium and magnesium salts containing 0.05% trypsin and 0.53 mM ethylene diaminetetraacetic acid (EDTA). Each culture was incubated at either room temperature or 37° C. on a rocking platform to ensure uniform distribution of the trypsin reagent over the culture surface. After a standardized period of time, typically 10 minutes, the released cells were removed from each culture dish and measured by the same means as described above, typically electronic particle counting. This ADH cell count is comprised of both trypsin resistant and trypsin sensitive cells as described in U.S. Pat. Nos. 5,637,486, 5,620,888, and 5,681,703.
Anti-apoptotic activity is expressed in the following examples as the calculated concentration of material (μg/ml of media) required to save 50% of the cells released on serum free treatment.
The ability of 18:1-LPA and other LPAs to protect serum-starved cells from apoptotic death was measured using the C3H/10T½ cell assay, performed as described in Example 2. The effect of various compounds on the ability of lysophosphatidic acid to protect serum-starved cells from apoptotic death was also measured. Log phase cells were seeded in 60 mm Petri dishes at 175-350 cells per cm2 and maintained in Basal Medium Eagle (BME) supplemented with 10% Heat Inactivated Fetal Bovine Serum (HIFBS). On day 3 the cells were given fresh media. Treatment began on day 5 when the media containing serum was removed and replaced with the LPA mixture to be tested. After 24 hours of treatment, day 6, serum deprived released (SDR) cells (the apoptotic cell population) and adherent (ADH) cells were separated and counted using an electronic cell counter Coulter Corporation, Hialea, Fla.). SDR cells were counted with the lower threshold setting at 6.3 μm and were defined as the apoptotic cells dying in response to cultivation in serum free media. Approximately 95% of the SDR cells were confirmed to be apoptotic as previously shown by size, ultrastructure and DNA fragmentation analysis. […]

[2] = Electrophoresis radiobinding assay on native polyacrylamide gel; type: binding; conditions: 1 nM labeled 18:1-LPA/45 μg protein, 37° C., 60 minutes
Procedure: Electrophoresis radiobinding assay. Proteins were analyzed on native polyacrylamide gels following incubation with ^3H-labeled 18:1-LPA. ^3H-labeled lysophosphatidic acid (1-oleyl) (DuPont NEN Products, Boston, Mass.) was added to tested proteins at 1 nM labeled 18:1-LPA/45 μg protein. Mixtures were incubated in a bicarbonate buffered saline/EDTA solution at 37° C. for 60 minutes. Incubated samples were mixed with native gel sample buffer (312 mM Tris pH 6.8, 50% glycerol, 0.05% bromophenol blue) and loaded entirely onto an 8% discontinuous native polyacrylamide gel. Following electrophoresis, proteins were fixed into the gels using an aqueous solution consisting of glacial acetic acid, 10% (vol/vol) and methanol 30% (vol./vol.) solution. Fixed gels were then incubated for 60 minutes in autoradiography enhancer (EN^3HANCE, DuPont NEN Products, Boston, Mass.), and dried onto 3M chromatography paper (Whatman, Clifton, N.J.) and exposed to autoradiography film (X-Omat, Kodak, Rochester, N.Y.) for 72 hours at −80° C.

C3H/10T½ cells [3] = experiment: Effect of proteins on anti-apoptotic activity of soy LPA, C3H/10T½ cell assay; type: cell-based; conditions: for Protein + 10 μg/mL Soy LPA, percent cells saved from apoptosis: 1:10 soy-LPA to protein (weight:weight), 24 h serum deprivation; for enhancement of the anti-apoptotic activity of LPA: protein added together with soy-LPA
Procedure: Soy derived LPA (soy-LPA) (Avanti® Polar Lipids, Inc., Alabaster, Ala.) was stored in an organic solution and was dried immediately prior to assay using a Speed Vac (Savant Instruments, Hicksville, N.Y.). Tested proteins were resuspended at 10 mg/mL in a bicarbonate buffered saline/EDTA solution (50 mM NH4HCO3, 104 mM NaCl, 250 μM EDTA) prior to being added to dried soy-LPA at a 1:10 soy-LPA to protein (weight:weight) ratio. The mixture was then sonicated for 5 minutes using a high power 80 Watt sonication bath (Laboratory Supplies Co., Hicksville, N.Y.). Following sonication, concentrated LPA/protein mixtures were left standing for 15 minutes at room temperature prior to dilution in cell culture assay media.
The effect of various proteins on the ability of LPA to protect serum-starved cells from apoptotic death was measured using the C3H/10T½ cell assay, performed as described in Example 2, above. Log phase cells were seeded in 60 mm Petri dishes at 175-350 cells per cm^2 and maintained in Basal Medium Eagle (BME) supplemented with 10% fetal calf serum (Hyclone, Logan, Utah). At time zero, serum containing media was replaced with sterile filtered BME containing the LPA/protein mixture to be tested. After 24 hours of treatment, serum deprived release (SDR) cells (the apoptotic cell population) and adherent (ADH) cells were separated and counted using an electronic cell counter (Coulter Corporation, Hialea, Fla.). SDR cells were counted with the lower threshold setting at 6.3 μm and were defined as the apoptotic cells dying in response to cultivation in serum-free-media. Approximately 95% of the SDR cells are confirmed to be apoptotic as previously shown by size, ultrastructure and DNA fragmentation analysis. Adherent cells were removed by treatment with a Hanks' balanced salt solution containing 0.05% trypsin and 0.53 mM EDTA and were counted with the lower threshold setting at 11.01 μm. All samples were tested in triplicate and serum-deprived controls (BME only) were assayed at both the beginning and end of each experiment.
The effects of various proteins alone or in combination with LPA are expressed as percent cells saved from apoptosis. When C3H10T½ cells were treated with 10 μg/mL soy LPA without protein, 8.0% of the cells were saved. The degree of protection from apoptosis afforded by protein alone, added to the medium at a concentration of 0.1% (wt/vol.), varied from 0.9% to 27.7% of cells saved from apoptosis. An unusually high percentage of cells were protected from serum-starvation-induced apoptosis by casein. This value may be artificially high, as casein preparations have been known to contain growth factors, including insulin-like growth factors (IGF) IGF1 and IGF2. IGF2 is a mitogen that can mask the serum deprivation-induced apoptotic response in these cells.

[4] = compounds exhibiting toxicity, Table 3 column Concentration for Max Effect

For CCCCCCCCCCCCCCOCC(O)COP(=O)(OC)OC (racemic) [Compound 3, Dimethyl 3-O-tetradecyl-rac-glycero-1-phosphate], the “Maximum effect relative to 18:1 LPA” value (C3H/10T½ cells [1]) was “Toxic” and the “lowest concentration at which cytotoxic effects were observed” value (“lowest concentration” below) (C3H/10T½ cells [1]; [4]) was 30 µM.

With CCCCCCCCCCCCCCOCC(O)COP(=O)(O)O (racemic) [Compound 4, 3-O-Tetradecyl-rac-glycero-1-phosphate] the “Maximum effect relative to 18:1 LPA” value (C3H/10T½ cells [1]) was “Toxic” and the “lowest concentration” value (C3H/10T½ cells [1]; mouse, 24 h) was 10 µM.

For CCCCCCCC/C=C\CCCCCCCC(=O)OCC(COP(O)(O)=S)OC (racemic) [Compound 48, 3-O-Oleoyl-2-O-methyl-rac-glycero-1-thiophosphate], the “activity compared with lysophosphatidic acid” value (C3H/10T½ cells [1]) was “significantly higher than lysophosphatidic acid”.

In the case of CCCCCCCC/C=C\CCCCCCCCOCC(COP(O)(O)=S)OC (racemic) [Compound 66, 3-O-Oleyl-2-O-methyl-rac-glycero-1-thiophosphate], the “activity compared with lysophosphatidic acid” value (C3H/10T½ cells [1]) is reported as “significantly higher than lysophosphatidic acid”.

For CCCCCCCC/C=C\CCCCCCCCOC(=O)C(COP(O)(O)=S)OC (racemic) [Compound 78, Oleyl 1-thiophosphoryl-2-O-methyl-rac-glycerate], the “activity compared with lysophosphatidic acid” value (C3H/10T½ cells [1]) was “significantly higher than lysophosphatidic acid”.

With CCCCCCCCCCCCCCOCC1CO1 (centres unmarked) [Compound 8, 1-O-Tetradecyl-glycidol] the “Maximum effect relative to 18:1 LPA” value (C3H/10T½ cells [1]) was “Toxic” and the “lowest concentration” value (C3H/10T½ cells [1]; [4]) was 30 µM.

With CCCCCCCC/C=C\CCCCCCCC(=O)NCCOP(=O)(OC)OC [Compound 59, Dimethyl 2-amino-2-N-oleoyl-ethyl phosphate] the “Maximum effect relative to 18:1 LPA” value (C3H/10T½ cells [1]) was “Toxic” and the “lowest concentration” value (C3H/10T½ cells [1]; [4]) was 30 µM.

In the case of Acyl Carrier Protein: source E. coli, the “Detectable Acrylamide Gel ^3H LPA Binding (+/−)” value [2] is reported as “did not yield detectable bands” and the “Protein + 10 μg/mL Soy LPA, percent cells saved from apoptosis” value (C3H/10T½ cells [3]) is reported as 36.2%.

In the case of Casein, the “Protein + 10 μg/mL Soy LPA, percent cells saved from apoptosis” value (C3H/10T½ cells [3]) is reported as 84.3%.

In the case of “Dimethyl 3-amino-3-N-oleoyl-propyl phosphate [Compound 53]”, the “Maximum effect relative to 18:1 LPA” value (C3H/10T½ cells [1]) is reported as “Toxic” and the “lowest concentration” value (C3H/10T½ cells [1]; [4]) is reported as 100 µM.

With Myelin Basic Protein the “Protein + 10 μg/mL Soy LPA, percent cells saved from apoptosis” value (C3H/10T½ cells [3]) was 17.0% and the “enhancement of the anti-apoptotic activity of LPA” value (C3H/10T½ cells [3]) was “did not enhance”.

For “Phosphatidylserine [Phosphatidylserine (PS), reference compound]”, the “toxicity to serum-deprived cells” value (C3H/10T½ cells [1]; PS alone (FIG. 2)) was “slightly toxic”.

B1: Myoglobin: source horse heart (protein, UniProt P68082 2-154, looked up)
Myoglobin: GLSDGEWQQVLNVWGKVEADIAGHGQEVLIRLFTGHPETLEKFDKFKHLKTEAEMKASEDLKKHGTVVLTALGGILKKKGHHEAELKPLAQSHATKHKIPIKYLEFISDAIIHVLHSKHPGDFGADAQGAMTKALELFRNDIAAKYKELGFQG
In the case of B1, the “Protein + 10 μg/mL Soy LPA, percent cells saved from apoptosis” value (C3H/10T½ cells [3]) is reported as 27.8%.

B2: Ovalbumin: source chicken egg (protein, UniProt P01012 2-386, looked up)
Ovalbumin: GSIGAASMEFCFDVFKELKVHHANENIFYCPIAIMSALAMVYLGAKDSTRTQINKVVRFDKLPGFGDSIEAQCGTSVNVHSSLRDILNQITKPNDVYSFSLASRLYAEERYPILPEYLQCVKELYRGGLEPINFQTAADQARELINSWVESQTNGIIRNVLQPSSVDSQTAMVLVNAIVFKGLWEKAFKDEDTQAMPFRVTEQESKPVQMMYQIGLFRVASMASEKMKILELPFASGTMSMLVLLPDEVSGLEQLESIINFEKLTEWTSSNVMEERKIKVYLPRMKMEEKYNLTSVLMAMGITDVFSSSANLSGISSAESLKISQAVHAAHAEINEAGREVVGSAEAGVDAASVSEEFRADHPFLFCIKHIATNAVLFFGRCVSP
In the case of B2, the “Detectable Acrylamide Gel ^3H LPA Binding (+/−)” value [2] is reported as “detectable band”, the “Protein + 10 μg/mL Soy LPA, percent cells saved from apoptosis” value (C3H/10T½ cells [3]) is reported as 15.1% and the “enhancement of the anti-apoptotic activity of LPA” value (C3H/10T½ cells [3]) is reported as “did not enhance”.
